System: NCIH929.1 cells
Assay: Cell viability assay for Table 2 (CellTiter-Glo 2.0, ATP quantification, 96 hr)
Format: cell-based
Conditions: 96 h, NCIH929.1 cell viability, 96 hr, top concentration 1 μM, 14 points half log titration; read-out: IC50
Description: Cell Viability Assay for Table 2
CellTiter-Glo® 2.0 Assay was purchased from Promega (Madison, Wis., USA). NCIH929.1 cell line was purchased from ATCC (Manassas, Va., USA). Cell culture flasks and 384-well microplates were acquired from VWR (Radnor, Pa., USA).

SMILES	IC50
CC1(C(=O)N2CCC(Cc3ccc(Cc4ccc5c6c(cccc46)C(=O)N5C4CCC(=O)NC4=O)cc3)CC2)CCC1 (stereo not drawn) [Compound 150, 3-(6-(4-((1-(1-methylcyclobutane-1-carbonyl)piperidin-4-yl)methyl)benzyl)-2-oxobenzo[cd]indol-1(2H)-yl)piperidine-2,6-dione]	< 1 nM
N#Cc1ccc(N2CCC(Cc3ccc(Cc4ccc5c6c(cccc46)C(=O)N5C4CCC(=O)NC4=O)cc3)CC2)c(F)c1 (stereo not drawn) [Compound 151, 4-(4-(4-((1-(2,6-dioxopiperidin-3-yl)-2-oxo-1,2-dihydrobenzo[cd]indol-6-yl)methyl)benzyl)piperidin-1-yl)-3-fluorobenzonitrile]	< 1 nM
O=C1CCC(N2C(=O)c3cccc4c(Cc5ccc(CC6CCN(Cc7ccccc7)CC6)cc5)ccc2c34)C(=O)N1 (stereo not drawn) [Compound 152, 3-(6-(4-((1-benzylpiperidin-4-yl)methyl)benzyl)-2-oxobenzo[cd]indol-1(2H)-yl)piperidine-2,6-dione]	< 1 nM
CC1(C(=O)N2CCC(n3cc(C(N)c4ccc5c6c(cccc46)C(=O)N5C4CCC(=O)NC4=O)cn3)CC2)CCC1 (stereo not drawn) [Compound 153, 3-(6-(amino(1-(1-(1-methylcyclobutane-1-carbonyl)piperidin-4-yl)-1H-pyrazol-4-yl)methyl)-2-oxobenzo[cd]indol-1(2H)-yl)piperidine-2,6-dione]	< 1 nM
CC(C)(C)OC(=O)N1CCC(n2cc(C(N)c3ccc4c5c(cccc35)C(=O)N4C3CCC(=O)NC3=O)cn2)CC1 (stereo not drawn) [Compound 154, tert-butyl 4-(4-(amino(1-(2,6-dioxopiperidin-3-yl)-2-oxo-1,2-dihydrobenzo[cd]indol-6-yl)methyl)-1H-pyrazol-1-yl)piperidine-1-carboxylate]	< 1 nM
O=C1CCC(N2C(=O)c3cccc4c(Cc5ccc(CN6CCc7ccccc7C6)cc5)ccc2c34)C(=O)N1 (stereo not drawn) [Compound 155, 3-[6-[[4-(3,4-dihydro-1H-isoquinolin-2-ylmethyl)phenyl]methyl]-2-oxo-benzo[cd]indol-1-yl]piperidine-2,6-dione]	< 1 nM
O=C1CCC(N2C(=O)c3cccc4c(Cc5ccc(CN6C7CCC6COC7)cc5)ccc2c34)C(=O)N1 (stereo not drawn) [Compound 156, 3-[6-[[4-(3-oxa-8-azabicyclo[3.2.1]octan-8-ylmethyl)phenyl]methyl]-2-oxo-benzo[cd]indol-1-yl]piperidine-2,6-dione]	< 1 nM
O=C1CCC(N2C(=O)c3cccc4c(Cc5ccc(CN6CCC(Cc7ccc(F)cc7)CC6)cc5)ccc2c34)C(=O)N1 (stereo not drawn) [Compound 157, 3-[6-[[4-[[4-[(4-fluorophenyl)methyl]-1-piperidyl]methyl]phenyl]methyl]-2-oxo-benzo[cd]indol-1-yl]piperidine-2,6-dione]	< 1 nM
CC(C)(C)C1CCN(Cc2ccc(Cc3ccc4c5c(cccc35)C(=O)N4C3CCC(=O)NC3=O)cc2)CC1 (stereo not drawn) [Compound 158, 3-[6-[[4-[(4-tert-butyl-1-piperidyl)methyl]phenyl]methyl]-2-oxo-benzo[cd]indol-1-yl]piperidine-2,6-dione]	< 1 nM
O=C1CCC(N2C(=O)c3cccc4c(Cc5ccc(CN6CCN(CC(F)(F)F)CC6)cc5)ccc2c34)C(=O)N1 (stereo not drawn) [Compound 161, 3-(2-Oxo-6-{4-[4-(2,2,2-trifluoro-ethyl)-piperazin-1-ylmethyl]-benzyl}-2H-benzo[cd]indol-1-yl)-piperidine-2,6-dione]	< 1 nM
O=C1CCC(N2C(=O)c3cccc4c(Cc5cnn(C6CCCCC6)c5)ccc2c34)C(=O)N1 (stereo not drawn) [Compound 162, 3-[6-[(1-cyclohexylpyrazol-4-yl)methyl]-2-oxo-benzo[cd]indol-1-yl]piperidine-2,6-dione]	< 1 nM
CC1(C(=O)N2CCC(n3cc(C4(c5ccc6c7c(cccc57)C(=O)N6C5CCC(=O)NC5=O)CC4)cn3)CC2)CCC1 (stereo not drawn) [Compound 163, 3-[6-[1-[1-[1-(1-methylcyclobutanecarbonyl)-4-piperidyl]pyrazol-4-yl]cyclopropyl]-2-oxo-benzo[cd]indol-1-yl]piperidine-2,6-dione]	< 1 nM

Reference: patent US20230082430A1 (C4 Therapeutics, Inc., priority 2019, published 2023)
